Source: patent publication US20050216965A1, “Method of detecting and reducing boar taint” (UNIVERSITY OF GUELPH, priority 1998, published 2005)
Structures can show the parent of a compound that is named as a salt. Each block holds one molecule with its values, some of them ahead of it.

Columns and labels:
cytochrome P450 = test system: cytochrome P450
Procedure: The metabolism of skatole was assayed in a medium containing 50 mM Tris-HCL buffer, pH 7.4, 10 mM potassium phosphate, 0.1 mM EDTA, 20% glycerol, 0.01 mM skatole and 1 mg/mL microsomel protein in a total volume of 2 mL. The reactions were started by addition of NADH and NADPH to 1 mM final concentration of each after 3 min of preincubation at 37° C. After 30 min at 37° C., the reactions were terminated by addition of 2 mL of ice-cold 0.2 M ammonium acetate buffer, pH 5.0.
Those incubations with no inhibitor added were regarded as controls. The effect of different P450 inhibitors on skatole metabolism was evaluated under the same conditions by including different concentrations of P450 inhibitors into the medium before preincubation.
Each assay was performed in duplicate. […] After adding ammonium acetate buffer, 5 μL of 0.01 mg/mL indole-3-acetonitrile was added to the reaction mixture as an internal standard. The mixture was then passed through a solid phase extraction tC18 cartridge (Waters Co., Milford, Mass.) previously conditioned with 2 mL of methanol and then 2 mL of water. The column was washed with 1 mL of water and skatole metabolites were eluted with 2×0.5 mL of acetonitrile. The acetonitrile was removed under a gentle stream of nitrogen at 40° C. and the metabolites were resuspended in 200 μl of acetonitrile for HPLC analysis. The HPLC equipment included a Spectra-Physics (San Jose, Calif., USA) SP8800 pump, SP8800 autosampler and SP4290 integrator, and a Phenomenex (Torrance, Calif., USA) Prodigy ODS-2 C18, 250×4.6 mm, 5 μm column. […] Injection volume was 100 μl.
For the purpose of the analysis, peak areas of the metabolites in control incubations were considered as 100%. Peak areas of the metabolites in the incubations with inhibitors were transformed to values of those for controls. The statistical model included the effect of the concentration of inhibitor and the effect of animal.

[1] = test system: thermostable phenol sulfotransferase; test: Sulfation of 5-OH-3MI by liver cytosol with phenolsulfotransferase inhibitors (Trial III); type: biochemical; settings: pig liver cytosol, 0.01 mM 5-OH-3MI, 1 mM PAPS, 10 min
Procedure: Trial III. The assay of 5-OH-3MI sulfation in Trial III utilized 1 mg cytosolic protein incubated with 0.01 mM 5-OH-3MI and 1 mM PAPS in 0.05M Tris/HCl pH 7.4 buffer containing 5 mM MgC12 in a total volume of 250 μl. The incubations were carried out in a shaking water bath at 37° C. for 10 min and the reaction was stopped with 250 μL ice-cold acetonitrile. After the addition of acetonitrile, the mixture was vortexed and centrifuged at 4,000 g for 15 min. A 400 μL aliquot of the clear supernatant was diluted with 400 μL water and 100 μL of the mixture was analyzed immediately by high-performance liquid chromatography (HPLC) as described below. Conjugates were identified based on the following criteria: (1) no peaks corresponding to conjugates appeared when cytosol and/or PAPS were excluded from the incubations; (2) no peaks corresponding to conjugates appeared when boiled cytosol was used, and (3) the peaks corresponding to the conjugates disappeared after addition of 10 μl of type H-2 sulfatase to the incubation mixture and further incubation for 3 h at 37° C. in a shaking water bath. Sulfation activity was measured as the formation of sulfoconjugate per minute per mg of cytosolic protein.
The effects of the phenolsulfotransferase inhibitors PCP and DCNP on the sulfation of 5-OH-3MI were determined by including different final concentrations of PCP or DCNP (0.001, 0.01, 0.1, 1, 10, 100 μM) in the assays. PCP was dissolved in methanol (final assay concentration 1%, v/v) and control incubations for PCP inihibition studies contained 1% methanol. DCNP was dissolved in incubation buffer.
Trial III. 5-OH-skatole and its sulfate conjugate were separated using a previously reported binary gradient system method (Hernandez et al., 1991) with a reverse-phase Prodigy ODS, 5 μm, 250×4.6 mm column (Phenomenex, Torrance, Calif., USA). The mobile phase consisted of 0.05M ammonium acetate buffer pH 5.0, at a flow rate of 1.2 ml/min. A 25-min linear gradient from 10 to 60% acetonitrile was used, with initiation of the gradient 2 min after sample injection. 5-OH-skatole and its conjugate were determined by their fluorescence (excitation wavelength of 285 nm, emission wavelength of 350 nm). Typical retention times for 5-OH-skatole and its conjugate were 18.5 and 13.4 min, respectively.

CYP2E1 = CYP2E1 (Sus scrofa, UniProt P79383); settings: uncastrated Yorkshire male pigs; 0.5 g/kg BW daily by gavage, day 14 to day 50; after day 27; P<0.05
Sequence of CYP2E1 (P79383 whole entry): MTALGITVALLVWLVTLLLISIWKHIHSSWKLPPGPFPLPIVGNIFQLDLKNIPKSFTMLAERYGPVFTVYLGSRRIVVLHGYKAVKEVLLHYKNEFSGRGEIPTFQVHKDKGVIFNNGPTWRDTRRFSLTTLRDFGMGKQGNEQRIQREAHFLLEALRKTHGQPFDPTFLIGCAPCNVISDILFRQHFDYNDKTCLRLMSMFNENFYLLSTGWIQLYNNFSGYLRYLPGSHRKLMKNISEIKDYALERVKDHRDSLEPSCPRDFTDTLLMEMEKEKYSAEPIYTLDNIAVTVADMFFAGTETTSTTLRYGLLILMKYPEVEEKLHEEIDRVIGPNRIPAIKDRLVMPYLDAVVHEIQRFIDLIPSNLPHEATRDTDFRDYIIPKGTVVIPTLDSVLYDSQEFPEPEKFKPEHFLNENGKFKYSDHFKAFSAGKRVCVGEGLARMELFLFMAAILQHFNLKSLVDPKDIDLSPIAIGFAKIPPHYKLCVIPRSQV
Procedure: Eight uncastrated Yorkshire male pigs were utilized in the study. Four males were assigned to the control group while the remaining four were treated with 0.5 g/kg BW of ethanol daily by gavage. Ethanol is a well-established inducer of CYP2E1. Treatment began at day 14 and continued until day 50. Blood samples were collected weekly and plasma skatole levels were measured by HPLC.

glucuronyl transferase = test: Conjugation of microsomal skatole metabolites with glucuronic acid (Trial II-c); type: in vitro ADME; settings: pig liver microsomes, 1 mM UDP-GA, 30 min
Procedure: (§1) Trial II. For evaluation of skatole metabolite production (Trial II-a, n=22), 1 mg/ml of liver microsomes were incubated in Buffer 1,1 mM NADPH, 1 mM NADH, and 0.01 mM skatole in a total volume of 2 ml for 30 min at 37° C. as previously described (Babol et al., 1997). To determine which microsomal skatole metabolites are conjugated with sulfate (Trial II-b, n=3), the reaction mixture was first incubated for 30 min as in Trial II-a. PAPS was then added to 1 mM final concentration and the incubation continued for 30, 60 and 90 min. Control incubations were performed for the same period of time with no PAPS added. Assays to evaluate the conjugation of skatole metabolites with glucuronic acid (Trial II-c, n=3) were conducted in a similar way by adding 1 mM of UDP-GA after 30 min of initial incubation and continuing the incubation for a further 7.5, 15 and 30 min. […]
(§2) Trial II. […] The metabolites were separated with RP C18 column and detected by measuring UV absorbance at 250 nm and fluorescence with excitation and emission wavelengths set at 285 and 340 nm.
(§3) Trial II. The effect of time of incubation of skatole metabolites with PAPS (Trial I1-b) and UDPGA (Trial I1-c) on the concentrations of the metabolites was analyzed using untransformed values with the GLM procedure. […] The differences in the metabolic activities among the groups were analyzed with the GLM procedure.

sulfotransferase = test: Conjugation of microsomal skatole metabolites with sulfate (Trial II-b); type: in vitro ADME; settings: pig liver microsomes, 1 mM PAPS, 90 min
Procedure: as §1, §2, §3

SMILES: C=CCSCC=C [DAS, diallyl sulfide]
- Formation of all the other skatole metabolites, except for F-1 (cytochrome P450): inhibited
- Skatole disappearance, effect in words (cytochrome P450): reduced

SMILES: O=[N+]([O-])c1cc(Cl)c(O)c(Cl)c1 [DCNP, 2,6-dichloro-4-nitrophenol]
- 5-sulfatoxyskatole production, % of the control ([1]; inhibitor 10 μM): 13.8%
- 5-sulfatoxyskatole production, % of the control ([1]; inhibitor 100 μM): 7.1%

SMILES: Oc1c(Cl)c(Cl)c(Cl)c(Cl)c1Cl [PCP, Pentachlorophenol]
- 5-sulfatoxyskatole production, % of the control ([1]; inhibitor 10 μM): 35.3%
- 5-sulfatoxyskatole production, % of the control ([1]; inhibitor 100 μM): 8%

SMILES: CCCC(C(=O)OCCN(CC)CC)(c1ccccc1)c1ccccc1 [SKF 525A, SKF 525A hydrochloride (Proadifen)]
- Amount of skatole remaining in the reaction mixture after incubation versus control (cytochrome P450): not affected
- Formation of F-2, effect in words (cytochrome P450): reduced
- Formation of F-3, effect in words (cytochrome P450): reduced
- Formation of UV-3, effect in words (cytochrome P450): reduced

SMILES: Cc1c[nH]c2cc(O)ccc12 [pro-MII, 6-Hydroxy-3-methylindole]
- Concentration in incubation with UDPGA, % of control incubations (glucuronyl transferase): 20%
- Concentration in incubation with PAPS, % of control (sulfotransferase): 40%

The next lines start with the values.

- Plasma skatole levels versus control group (CYP2E1): significantly lower
SMILES: CCO [ethanol]

- Amount of skatole remaining in the reaction mixture after incubation versus control (cytochrome P450): higher
- Formation of UV-3, effect in words (cytochrome P450): reduced
SMILES: CC(C)(C(=O)c1cccnc1)c1cccnc1 [metyrapone]

- Concentration in incubation with UDPGA, % of control incubations (glucuronyl transferase): 126.1%
SMILES: Cc1c[nH]c2ccccc12 [skatole, 3-methylindole]
